Values of other authors in paper PMC9516332 (Frontiers in Oncology, 2022).
Like-named read-outs stand apart in the source and are kept apart here.

Key:
Details in all cases: cited from earlier work
[1] = target: T1, panel of 255 wild-type kinases (Homo sapiens, UniProt Q8NE63)
T1 sequence (Q8NE63 1-616): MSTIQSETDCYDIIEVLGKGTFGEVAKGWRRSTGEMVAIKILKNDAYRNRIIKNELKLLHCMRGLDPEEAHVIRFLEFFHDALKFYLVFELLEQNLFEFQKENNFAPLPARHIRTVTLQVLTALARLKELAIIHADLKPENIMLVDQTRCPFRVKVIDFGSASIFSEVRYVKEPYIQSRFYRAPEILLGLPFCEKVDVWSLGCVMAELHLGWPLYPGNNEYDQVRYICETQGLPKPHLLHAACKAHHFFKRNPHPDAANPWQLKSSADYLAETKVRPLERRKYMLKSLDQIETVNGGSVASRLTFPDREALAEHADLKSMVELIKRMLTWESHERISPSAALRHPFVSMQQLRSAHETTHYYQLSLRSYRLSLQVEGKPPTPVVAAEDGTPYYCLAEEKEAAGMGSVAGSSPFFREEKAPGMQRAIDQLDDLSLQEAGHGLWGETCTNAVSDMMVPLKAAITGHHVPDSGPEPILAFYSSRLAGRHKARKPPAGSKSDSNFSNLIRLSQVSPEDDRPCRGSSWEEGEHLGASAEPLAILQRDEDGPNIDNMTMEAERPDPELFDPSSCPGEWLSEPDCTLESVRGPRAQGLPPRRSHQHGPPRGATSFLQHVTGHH

[2] = target: T2, panel of 255 wild-type kinases (Homo sapiens, UniProt Q9UF33)
T2 sequence (Q9UF33 23-1036): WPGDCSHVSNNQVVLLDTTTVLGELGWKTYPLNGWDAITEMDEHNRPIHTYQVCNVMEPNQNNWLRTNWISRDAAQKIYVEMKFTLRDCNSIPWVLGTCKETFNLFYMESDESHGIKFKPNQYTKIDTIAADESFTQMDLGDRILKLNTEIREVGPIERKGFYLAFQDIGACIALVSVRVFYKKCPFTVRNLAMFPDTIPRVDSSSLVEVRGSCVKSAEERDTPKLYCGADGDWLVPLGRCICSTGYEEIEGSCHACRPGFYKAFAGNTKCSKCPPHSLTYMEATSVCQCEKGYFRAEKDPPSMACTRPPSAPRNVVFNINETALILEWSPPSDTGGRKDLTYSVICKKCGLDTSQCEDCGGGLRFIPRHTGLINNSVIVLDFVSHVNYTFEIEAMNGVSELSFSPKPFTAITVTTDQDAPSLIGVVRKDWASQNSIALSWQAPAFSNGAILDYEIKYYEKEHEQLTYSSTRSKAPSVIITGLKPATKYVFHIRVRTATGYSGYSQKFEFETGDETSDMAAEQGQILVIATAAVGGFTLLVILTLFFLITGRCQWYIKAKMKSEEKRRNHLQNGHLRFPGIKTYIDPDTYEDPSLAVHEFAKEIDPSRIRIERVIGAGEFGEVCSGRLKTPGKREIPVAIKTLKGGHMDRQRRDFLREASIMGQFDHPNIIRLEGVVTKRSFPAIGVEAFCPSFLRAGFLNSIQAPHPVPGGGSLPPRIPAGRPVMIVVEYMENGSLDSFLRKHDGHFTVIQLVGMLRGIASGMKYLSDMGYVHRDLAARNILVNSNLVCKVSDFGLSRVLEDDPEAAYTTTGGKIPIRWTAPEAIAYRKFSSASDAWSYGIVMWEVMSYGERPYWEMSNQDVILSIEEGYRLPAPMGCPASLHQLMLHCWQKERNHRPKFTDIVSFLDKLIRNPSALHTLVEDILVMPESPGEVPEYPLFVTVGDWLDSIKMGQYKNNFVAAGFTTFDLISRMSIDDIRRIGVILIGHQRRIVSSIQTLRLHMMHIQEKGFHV

[3] = target: panel of 255 wild-type kinases (Homo sapiens, UniProt Q16644)
[4] = target: panel of 255 wild-type kinases (Homo sapiens, UniProt Q86Z02)
[5] = target: T3, panel of 255 wild-type kinases (Homo sapiens, UniProt Q9UHD2)
T3 sequence (Q9UHD2 1-729): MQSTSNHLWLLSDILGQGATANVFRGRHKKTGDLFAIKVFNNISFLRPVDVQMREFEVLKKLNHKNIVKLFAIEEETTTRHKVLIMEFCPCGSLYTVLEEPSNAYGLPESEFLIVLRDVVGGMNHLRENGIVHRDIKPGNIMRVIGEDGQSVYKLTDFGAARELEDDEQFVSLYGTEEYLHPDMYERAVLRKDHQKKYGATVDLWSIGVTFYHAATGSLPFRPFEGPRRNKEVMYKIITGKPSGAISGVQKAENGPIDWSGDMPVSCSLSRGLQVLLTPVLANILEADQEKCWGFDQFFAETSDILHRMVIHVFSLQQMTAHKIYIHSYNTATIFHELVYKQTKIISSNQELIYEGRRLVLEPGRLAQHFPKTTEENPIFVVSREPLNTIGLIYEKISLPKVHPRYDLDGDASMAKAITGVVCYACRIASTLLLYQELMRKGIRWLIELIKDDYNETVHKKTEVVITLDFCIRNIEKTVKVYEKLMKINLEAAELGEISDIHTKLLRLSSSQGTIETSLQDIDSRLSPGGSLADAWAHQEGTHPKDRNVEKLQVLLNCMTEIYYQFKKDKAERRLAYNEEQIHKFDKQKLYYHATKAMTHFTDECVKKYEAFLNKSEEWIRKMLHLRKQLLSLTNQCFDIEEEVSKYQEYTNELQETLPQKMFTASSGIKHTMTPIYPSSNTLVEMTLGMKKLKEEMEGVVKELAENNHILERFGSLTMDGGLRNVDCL

[6] = target: panel of 255 wild-type kinases (Homo sapiens, UniProt P27361)
[7] = kinase HIPK4, 1 µmol/L single concentration, ref DOI: 10.1158/1535-7163.MCT-18-0877
[8] = kinase EPHA6, 1 µmol/L single concentration, ref DOI: 10.1158/1535-7163.MCT-18-0877
[9] = MAPKAPK3, 1 µmol/L single concentration, ref DOI: 10.1158/1535-7163.MCT-18-0877
[10] = kinase HIPK1, 1 µmol/L single concentration, ref DOI: 10.1158/1535-7163.MCT-18-0877
[11] = kinase TBK1, 1 µmol/L single concentration, ref DOI: 10.1158/1535-7163.MCT-18-0877
[12] = kinase Erk1, 1 µmol/L single concentration, ref DOI: 10.1158/1535-7163.MCT-18-0877
[13] = kinase HIPK4, 1 µmol/L single concentration, ref DOI: 10.1371/journal.pone.0092146
[14] = kinase EPHA6, 1 µmol/L single concentration, ref DOI: 10.1371/journal.pone.0092146
[15] = MAPKAPK3, 1 µmol/L single concentration, ref DOI: 10.1371/journal.pone.0092146
[16] = kinase HIPK1, 1 µmol/L single concentration, ref DOI: 10.1371/journal.pone.0092146
[17] = kinase TBK1, 1 µmol/L single concentration, ref DOI: 10.1371/journal.pone.0092146
[18] = kinase Erk1, 1 µmol/L single concentration, ref DOI: 10.1371/journal.pone.0092146

SMILES: O=C(c1ccc(F)c(F)c1Nc1ccc(I)cc1F)N1CC(O)([C@@H]2CCCCN2)C1 [cobimetinib]
- %-inhibition at 1 µmol/L, HIPK4 [1, 7]: 1.8%
- %-inhibition at 1 µmol/L, EPHA6 [2, 8]: 1.6%
- %-inhibition, MAPKAPK3 [3, 9]: 1.42%
- %-inhibition at 1 µmol/L, HIPK1 [4, 10]: 6.62%
- %-inhibition at 1 µmol/L, TBK1 [5, 11]: 4%
- %-inhibition at 1 µmol/L, Erk1 [6, 12]: -0.916%

SMILES: CO[C@@H]1[C@H](N(C)C(=O)c2ccccc2)C[C@H]2O[C@]1(C)n1c3ccccc3c3c4c(c5c6ccccc6n2c5c31)C(=O)NC4 [midostaurin]
- %-inhibition at 1 µmol/L, HIPK4 [1, 7]: 63%
- %-inhibition at 1 µmol/L, EPHA6 [2, 8]: 19%
- %-inhibition, MAPKAPK3 [3, 9]: -7%
- %-inhibition at 1 µmol/L, HIPK1 [4, 10]: 12%
- %-inhibition at 1 µmol/L, TBK1 [5, 11]: 98%
- %-inhibition at 1 µmol/L, Erk1 [6, 12]: -0.653%

SMILES: C=CC(=O)N1CCC[C@@H](n2nc(-c3ccc(Oc4ccccc4)cc3)c3c(N)ncnc32)C1 [ibrutinib]
- %-inhibition at 1 µmol/L, HIPK4 [1, 7]: 2.6%
- %-inhibition at 1 µmol/L, EPHA6 [2, 8]: 93%
- %-inhibition, MAPKAPK3 [3, 9]: -6.5%
- %-inhibition at 1 µmol/L, HIPK1 [4, 10]: 4.26%
- %-inhibition at 1 µmol/L, TBK1 [5, 11]: 0.825%
- %-inhibition at 1 µmol/L, Erk1 [6, 12]: 1.74%

SMILES: C[C@@H](Oc1cc(-c2cnn(C3CCNCC3)c2)cnc1N)c1c(Cl)ccc(F)c1Cl [crizotinib]
- %-inhibition at 1 µmol/L, HIPK4 [1, 13]: 31%
- %-inhibition at 1 µmol/L, EPHA6 [2, 14]: 100%
- %-inhibition, MAPKAPK3 [3, 15]: -13%
- %-inhibition at 1 µmol/L, HIPK1 [4, 16]: -7%
- %-inhibition at 1 µmol/L, TBK1 [5, 17]: 1.42%
- %-inhibition at 1 µmol/L, Erk1 [6, 18]: -2%

SMILES: Cc1cc(Nc2ncc(Cl)c(Nc3ccccc3S(=O)(=O)C(C)C)n2)c(OC(C)C)cc1C1CCNCC1 [ceritinib]
- %-inhibition at 1 µmol/L, HIPK4 [1, 7]: 36%
- %-inhibition at 1 µmol/L, EPHA6 [2, 8]: 29%
- %-inhibition, MAPKAPK3 [3, 9]: -10%
- %-inhibition at 1 µmol/L, HIPK1 [4, 10]: 12%
- %-inhibition at 1 µmol/L, TBK1 [5, 11]: 4%
- %-inhibition at 1 µmol/L, Erk1 [6, 12]: 35%

SMILES: CC(C)(C)c1nc(-c2cccc(NS(=O)(=O)c3c(F)cccc3F)c2F)c(-c2ccnc(N)n2)s1 [dabrafenib]
- %-inhibition at 1 µmol/L, HIPK4 [1, 13]: 92%
- %-inhibition at 1 µmol/L, EPHA6 [2, 14]: 88%
- %-inhibition, MAPKAPK3 [3, 15]: -11%
- %-inhibition at 1 µmol/L, HIPK1 [4, 16]: 70%
- %-inhibition at 1 µmol/L, TBK1 [5, 17]: -1.15%
- %-inhibition at 1 µmol/L, Erk1 [6, 18]: -1.62%

SMILES: C=CC(=O)Nc1cc(Nc2nccc(-c3cn(C)c4ccccc34)n2)c(OC)cc1N(C)CCN(C)C [osimertinib]
- %-inhibition at 1 µmol/L, HIPK4 [1, 7]: 92%
- %-inhibition at 1 µmol/L, EPHA6 [2, 8]: 2.33%
- %-inhibition, MAPKAPK3 [3, 9]: -9%
- %-inhibition at 1 µmol/L, HIPK1 [4, 10]: 34%
- %-inhibition at 1 µmol/L, TBK1 [5, 11]: 9%
- %-inhibition at 1 µmol/L, Erk1 [6, 12]: -3.18%

SMILES: CC#CC(=O)N1CCC[C@H]1c1nc(-c2ccc(C(=O)Nc3ccccn3)cc2)c2c(N)nccn12 [acalabrutinib]
- %-inhibition at 1 µmol/L, HIPK4 [1, 7]: -10%
- %-inhibition at 1 µmol/L, EPHA6 [2, 8]: -2.37%
- %-inhibition, MAPKAPK3 [3, 9]: -11%
- %-inhibition at 1 µmol/L, HIPK1 [4, 10]: -15%
- %-inhibition at 1 µmol/L, TBK1 [5, 11]: 2.14%
- %-inhibition at 1 µmol/L, Erk1 [6, 12]: -2.38%

SMILES: COc1cc(N2CCC(N3CCN(C)CC3)CC2)ccc1Nc1ncc(Cl)c(Nc2ccccc2P(C)(C)=O)n1 [brigatinib]
- %-inhibition at 1 µmol/L, HIPK4 [1]: 81%
- %-inhibition at 1 µmol/L, EPHA6 [2]: 20%
- %-inhibition, MAPKAPK3 [3]: -0.903%
- %-inhibition at 1 µmol/L, HIPK1 [4]: 11%
- %-inhibition at 1 µmol/L, TBK1 [5]: 23%
- %-inhibition at 1 µmol/L, Erk1 [6]: 3.68%

SMILES: CCCS(=O)(=O)Nc1ccc(F)c(C(=O)c2c[nH]c3ncc(-c4ccc(Cl)cc4)cc23)c1F [vemurafenib]
- %-inhibition at 1 µmol/L, HIPK4 [1, 13]: -0.437%
- %-inhibition at 1 µmol/L, EPHA6 [2, 14]: 37%
- %-inhibition, MAPKAPK3 [3, 15]: 12%
- %-inhibition at 1 µmol/L, HIPK1 [4, 16]: -4.72%
- %-inhibition at 1 µmol/L, TBK1 [5, 17]: -0.81%
- %-inhibition at 1 µmol/L, Erk1 [6, 18]: 0.0533%

SMILES: CCc1cc2c(cc1N1CCC(N3CCOCC3)CC1)C(C)(C)c1[nH]c3cc(C#N)ccc3c1C2=O [alectinib]
- %-inhibition at 1 µmol/L, HIPK4 [1, 7]: 26%
- %-inhibition at 1 µmol/L, EPHA6 [2, 8]: 0.529%
- %-inhibition, MAPKAPK3 [3, 9]: -0.429%
- %-inhibition at 1 µmol/L, HIPK1 [4, 10]: 2.52%
- %-inhibition at 1 µmol/L, TBK1 [5, 11]: 6%
- %-inhibition at 1 µmol/L, Erk1 [6, 12]: 1.41%

SMILES: CC(=O)Nc1cccc(-n2c(=O)n(C3CC3)c(=O)c3c(Nc4ccc(I)cc4F)n(C)c(=O)c(C)c32)c1 [trametinib]
- %-inhibition at 1 µmol/L, HIPK4 [1, 13]: 2.78%
- %-inhibition at 1 µmol/L, EPHA6 [2, 14]: -2.51%
- %-inhibition, MAPKAPK3 [3, 15]: -9%
- %-inhibition at 1 µmol/L, HIPK1 [4, 16]: -3.71%
- %-inhibition at 1 µmol/L, TBK1 [5, 17]: -4.47%
- %-inhibition at 1 µmol/L, Erk1 [6, 18]: -1.14%
